Our source for the Activity values is ChEMBL document CHEMBL4418912, “Methods of identifying antagonists of the hTAS2R46 bitter taste receptor” (2014).

Structures are written as SMILES. Activity calls are given as the source filed them. No cut-off for these calls is given here.

Type in all cases: functional, cell-based
The target in assay [1] is T1, Taste receptor type 2 member 9 (Homo sapiens) (UniProt Q9NYW1).
T1 sequence (whole entry): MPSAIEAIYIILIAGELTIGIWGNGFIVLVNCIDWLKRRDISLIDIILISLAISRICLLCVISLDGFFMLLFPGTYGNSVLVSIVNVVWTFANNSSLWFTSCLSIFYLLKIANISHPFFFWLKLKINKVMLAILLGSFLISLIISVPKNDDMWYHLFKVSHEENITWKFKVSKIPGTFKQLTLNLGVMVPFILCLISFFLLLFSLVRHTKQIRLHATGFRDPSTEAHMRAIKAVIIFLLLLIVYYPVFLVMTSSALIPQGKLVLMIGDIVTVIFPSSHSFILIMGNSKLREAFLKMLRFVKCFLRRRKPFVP
The experiment in a line: Agonist activity at recombinant human N-terminal rat ST3 receptor-fused TAS2R9 expressed in HEK293T cells co-expressing Galpha16gust44 assessed as increase in intracellular calcium level at 100 uM by FLIPR assay. (Calcium assays in cells follow changes in intracellular calcium, usually with a dye or a luminescent sensor.)

Assay [2] concerns the target T2, Taste receptor type 2 member 43 (Homo sapiens) (UniProt P59537).
T2 sequence (whole entry): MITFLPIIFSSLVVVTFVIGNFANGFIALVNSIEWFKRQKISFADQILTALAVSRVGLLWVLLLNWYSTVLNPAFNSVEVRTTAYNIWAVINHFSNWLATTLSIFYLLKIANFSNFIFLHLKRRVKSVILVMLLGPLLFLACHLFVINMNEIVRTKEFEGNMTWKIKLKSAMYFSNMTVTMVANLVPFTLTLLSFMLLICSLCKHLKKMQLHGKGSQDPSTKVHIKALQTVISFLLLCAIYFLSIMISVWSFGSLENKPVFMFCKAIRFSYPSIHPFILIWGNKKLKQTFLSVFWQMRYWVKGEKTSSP
The experiment in a line: Agonist activity at recombinant human N-terminal rat ST3 receptor-fused TAS2R43 expressed in HEK293T cells co-expressing Galpha16gust44 assessed as increase in intracellular calcium level at 100 uM by FLIPR assay.

In assay [3] the target is T3, Taste receptor type 2 member 8 (Homo sapiens) (UniProt Q9NYW2).
T3 sequence (whole entry): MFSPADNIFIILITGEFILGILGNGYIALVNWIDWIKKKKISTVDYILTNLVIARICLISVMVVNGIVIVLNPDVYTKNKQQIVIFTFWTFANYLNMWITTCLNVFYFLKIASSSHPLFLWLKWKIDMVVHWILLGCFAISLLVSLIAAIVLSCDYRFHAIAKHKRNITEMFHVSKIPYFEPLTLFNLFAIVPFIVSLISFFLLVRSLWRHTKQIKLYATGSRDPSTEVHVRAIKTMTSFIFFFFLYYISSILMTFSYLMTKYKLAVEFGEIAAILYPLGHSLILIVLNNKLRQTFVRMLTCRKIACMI
Kind of assay: Agonist activity at recombinant human N-terminal rat ST3 receptor-fused TAS2R8 expressed in HEK293T cells co-expressing Galpha16gust44 assessed as increase in intracellular calcium level at 100 uM by FLIPR assay.

For assay [4], the target named is T4, Taste receptor type 2 member 50 (Homo sapiens) (UniProt P59544).
T4 sequence (whole entry): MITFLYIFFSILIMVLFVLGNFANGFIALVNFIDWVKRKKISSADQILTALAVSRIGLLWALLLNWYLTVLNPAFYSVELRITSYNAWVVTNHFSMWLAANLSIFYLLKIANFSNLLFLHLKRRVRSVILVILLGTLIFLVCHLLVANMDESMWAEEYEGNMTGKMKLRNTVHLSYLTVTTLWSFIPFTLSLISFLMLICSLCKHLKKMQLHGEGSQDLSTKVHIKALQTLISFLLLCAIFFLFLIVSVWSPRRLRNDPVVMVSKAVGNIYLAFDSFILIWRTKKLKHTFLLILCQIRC
The experiment in a line: Agonist activity at recombinant human N-terminal rat ST3 receptor-fused TAS2R50 expressed in HEK293T cells co-expressing Galpha16gust44 assessed as increase in intracellular calcium level at 100 uM by FLIPR assay.

For assay [5], the target named is T5, Taste receptor type 2 member 3 (Homo sapiens) (UniProt Q9NYW6).
T5 sequence (whole entry): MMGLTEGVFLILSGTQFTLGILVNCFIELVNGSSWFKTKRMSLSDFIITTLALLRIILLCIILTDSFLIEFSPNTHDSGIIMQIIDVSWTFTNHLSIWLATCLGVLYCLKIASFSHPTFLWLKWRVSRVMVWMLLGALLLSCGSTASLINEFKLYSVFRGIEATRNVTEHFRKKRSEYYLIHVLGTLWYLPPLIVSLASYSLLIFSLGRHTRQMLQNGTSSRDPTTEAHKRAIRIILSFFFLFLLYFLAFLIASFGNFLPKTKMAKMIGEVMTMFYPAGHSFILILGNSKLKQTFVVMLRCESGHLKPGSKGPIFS
Kind of assay: Agonist activity at recombinant human N-terminal rat ST3 receptor-fused TAS2R3 expressed in HEK293T cells co-expressing Galpha16gust44 assessed as increase in intracellular calcium level at 100 uM by FLIPR assay.

For assay [6], the target named is T6, Taste receptor type 2 member 10 (Homo sapiens) (UniProt Q9NYW0).
T6 sequence (whole entry): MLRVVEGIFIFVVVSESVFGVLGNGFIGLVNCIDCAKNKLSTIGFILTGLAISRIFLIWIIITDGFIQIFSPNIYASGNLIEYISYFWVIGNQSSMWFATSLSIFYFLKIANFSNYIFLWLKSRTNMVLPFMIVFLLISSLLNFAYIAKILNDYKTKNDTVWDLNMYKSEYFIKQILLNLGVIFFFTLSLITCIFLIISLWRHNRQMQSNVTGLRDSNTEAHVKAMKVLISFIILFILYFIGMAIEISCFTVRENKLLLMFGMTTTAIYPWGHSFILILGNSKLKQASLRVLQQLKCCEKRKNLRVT
The experiment in a line: Competitive-antagonist activity at recombinant human N-terminal rat ST3 receptor-fused TAS2R10 expressed in HEK293T cells co-expressing Galpha16gust44 assessed as inhibition of strychnine-induced increase in intracellular calcium level by measuring maximum signal amplitude at 10 uM by FLIPR assay (reference value: 0.42 +/- 0.09 a.u.).

The target of assay [7] is T7, Taste receptor type 2 member 30 (Homo sapiens) (UniProt P59541).
T7 sequence (whole entry): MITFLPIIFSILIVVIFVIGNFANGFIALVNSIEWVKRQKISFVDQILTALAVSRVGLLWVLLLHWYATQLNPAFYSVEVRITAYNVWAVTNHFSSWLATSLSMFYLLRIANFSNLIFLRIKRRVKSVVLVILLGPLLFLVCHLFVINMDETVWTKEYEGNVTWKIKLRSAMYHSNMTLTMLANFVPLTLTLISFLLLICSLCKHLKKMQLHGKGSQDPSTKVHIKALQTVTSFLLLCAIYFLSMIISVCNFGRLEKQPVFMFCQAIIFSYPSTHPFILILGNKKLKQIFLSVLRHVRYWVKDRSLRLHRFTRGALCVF
Kind of assay: Agonist activity at recombinant human N-terminal rat ST3 receptor-fused TAS2R47 expressed in HEK293T cells co-expressing Galpha16gust44 assessed as increase in intracellular calcium level at 100 uM by FLIPR assay.

Take `C/C1=C\C[C@H](O)/C(C)=C/[C@H]2OC(=O)[C@@H](C)[C@@H]2CC1`: the outcome in assay [1], in assay [2], in assay [4], in assay [5] and in assay [7] was inactive. For the same compound, in assay [3], the result was Active. In addition, the Activity in assay [6] amounted to 0.4 a.u.
